# Active and inactive are the calls of the source. The rule behind the calls is not given here.
# Experiments:
# Ileum [1] = test: Ex vivo spasmolytic activity in ACh-induced contractions in Sprague-Dawley rat ileum incubated for 5 mins; type: functional, tissue-based
# Ileum [2] = test: Ex vivo spasmolytic activity in ACh-induced contractions in Sprague-Dawley rat ileum incubated for 5 mins in presence L-NAME; type: functional, tissue-based
# Ileum [3] = test: Ex vivo spasmolytic activity in ACh-induced contractions in Sprague-Dawley rat ileum at 0.5 to 8 uM incubated for 5 mins in presence ODQ relative to control; type: functional; conditions: dose 0.5-8 µM
# Ileum [4] = test: Ex vivo spasmolytic activity in ACh-induced contractions in Sprague-Dawley rat ileum incubated for 5 mins in presence of GLIB; type: functional, tissue-based
# Ileum [5] = test: Ex vivo spasmolytic activity in CaCl2-induced contractions in Sprague-Dawley rat ileum at 1 to 2 uM incubated for 15 mins; type: functional, tissue-based; conditions: dose 1-2 µM
# Ileum [6] = test: Ex vivo spasmolytic activity in ACh-induced contractions in Sprague-Dawley rat ileum incubated for 5 mins in presence of TEA; type: functional, tissue-based
# Ileum [7] = test: Ex vivo spasmolytic activity in ACh-induced contractions in Sprague-Dawley rat ileum at 0.5 to 8 uM incubated for 5 mins relative to control; type: functional; conditions: dose 0.5-8 µM
# Ileum [8] = test: Ex vivo spasmolytic activity in ACh-induced contractions in Sprague-Dawley rat ileum at 0.5 to 8 uM incubated for 5 mins in presence of TEA relative to control; type: functional; conditions: dose 0.5-8 µM
# Ileum [9] = test: Ex vivo spasmolytic activity in ACh-induced contractions in Sprague-Dawley rat ileum at 2 uM incubated for 5 mins; type: functional, tissue-based
# Ileum [10] = test: Ex vivo spasmolytic activity in ACh-induced contractions in Sprague-Dawley rat ileum incubated for 5 mins in presence ODQ; type: functional, tissue-based
# Ileum [11] = test: Ex vivo spasmolytic activity in ACh-induced contractions in Sprague-Dawley rat ileum incubated for 5 mins in presence of CsCl; type: functional, tissue-based
# Ileum [12] = test: Ex vivo spasmolytic activity in ACh-induced contractions in Sprague-Dawley rat ileum incubated for 5 mins in presence of 4-AP; type: functional, tissue-based
# Ileum [13] = test: Ex vivo spasmolytic activity in ACh-induced contractions in Sprague-Dawley rat ileum at 0.5 to 8 uM incubated for 5 mins in presence L-NAME relative to control; type: functional; conditions: dose 0.5-8 µM
# Ileum [14] = test: Ex vivo spasmolytic activity in ACh-induced contractions in Sprague-Dawley rat ileum at 0.5 to 8 uM incubated for 5 mins in presence of GLIB relative to control; type: functional; conditions: dose 0.5-8 µM
# Ileum [15] = test: Ex vivo spasmolytic activity in ACh-induced contractions in Sprague-Dawley rat ileum at 0.5 to 8 uM incubated for 5 mins in presence of 4-AP relative to control; type: functional; conditions: dose 0.5-8 µM
# Ileum [16] = test: Ex vivo spasmolytic activity in ACh-induced contractions in Sprague-Dawley rat ileum at 0.5 to 8 uM incubated for 5 mins in presence of CsCl relative to control; type: functional; conditions: dose 0.5-8 µM
Structure (SMILES),EC50 (Ileum [1]),further results
COc1c2cc(c(O[C@@H]3O[C@H](CO)[C@@H](O)[C@H](O)[C@H]3O)c1OC)CCCCC(=O)CCc1ccc(O)c-2c1,2.3 µM,–
CCN(CC)CCOC(=O)C1(C2CCCCC2)CCCCC1 [DICYCLOMINE],0.6 µM,–
COc1c2cc(c(O[C@@H]3O[C@H](CO)[C@@H](O)[C@H](O)[C@H]3O)c1OC)CCCCC(=O)[C@@H](O)Cc1ccc(O)c-2c1,2.4 µM,–
COc1c2cc(c(O[C@@H]3O[C@H](CO)[C@@H](O)[C@H](O)[C@H]3O)c1OC)CCCC(=O)[C@@H](O)Cc1ccc(O)c-2c1,1.6 µM,–
COc1cc2cc(c1OC)-c1cc(ccc1O)C[C@H](O)C(=O)CCC2,1.4 µM,EC50 (Ileum [2]): 5.1 µM; Emax (Ileum [3]): 81.7%; EC50 (Ileum [4]): 1.7 µM; Activity (Ileum [5]): Active; EC50 (Ileum [6]): 1.5 µM; Emax (Ileum [7]): 79.8%; Emax (Ileum [8]): 60.8%; Activity (Ileum [9]): Active; Activity Less Than Dichloromethane; EC50 (Ileum [10]): 1.6 µM; EC50 (Ileum [11]): 1.6 µM; EC50 (Ileum [12]): 1.9 µM; Emax (Ileum [13]): 43%; Emax (Ileum [14]): 84.9%; Emax (Ileum [15]): 71.9%; Emax (Ileum [16]): 82.7%
COc1c2ccc(c1O[C@@H]1O[C@H](CO)[C@@H](O)[C@H](O)[C@H]1O)CCCCC(O)CCc1ccc(O)c(c1)O2 (stereo partly drawn),3.6 µM,–
COc1cc2cc(c1OC)-c1cc(ccc1O)CCC(=O)CCCC2,5 µM,–
COc1c2ccc(c1O)CCCCC(=O)CCc1ccc(O)c(c1)O2,3.8 µM,–

# The next lines start with results.
EC50 (Ileum [1]),Structure (SMILES),further results
2.9 µM,COc1c2cc(c(O)c1OC)CCCCC(=O)CCc1ccc(O)c-2c1 [MYRICANONE],–
4.6 µM,COc1c2cc(c(OC)c1OC)-c1cc(ccc1O)[C@H](O)CC(=O)CCCC2,–
2.8 µM,COc1c2cc(c(O[C@@H]3O[C@H](CO)[C@@H](O)[C@H](O)[C@H]3O)c1OC)CCCC[C@@H](OC(C)=O)CCc1ccc(O)c-2c1,–
3.2 µM,COc1c2cc(c(O[C@@H]3O[C@H](CO)[C@@H](O)[C@H](O)[C@H]3O)c1OC)CCCC[C@@H](O)CCc1ccc(O)c-2c1,–
5.1 µM,COc1c2cc(c(O)c1OC)CCCC(=O)[C@@H](O)Cc1ccc(O)c-2c1,–
3.7 µM,COc1c2cc(c(O)c1OC)CCCC[C@@H](OC(C)=O)CCc1ccc(O)c-2c1,–
1.5 µM,COc1c2cc(c(OC)c1O)-c1cc(ccc1O)CC[C@H](O)CCCC2,–
2.4 µM,COc1c2cc(c(O[C@@H]3O[C@H](CO)[C@@H](O)[C@H](O)[C@H]3O)c1OC)CCCC[C@H](O)CCc1ccc(O)c-2c1,–
2.9 µM,COc1c2cc(c(O)c1OC)CCCC[C@@H](O)CCc1ccc(O)c-2c1,–
2.8 µM,COc1c2cc(c(OC)c1OC)-c1cc(ccc1O)C[C@@H](O)[C@@H](O)CCCC2,–

# Source: ChEMBL document CHEMBL6120997, “Macrocyclic Compounds with Diverse Skeletons from the Roots of Myrica nana and Their Spasmolytic Activity” (J Nat Prod, 2025)
